In ChEMBL document CHEMBL5226371, “Hyperhubeins A-I, Bioactive Sesquiterpenes with Diverse Skeletons from Hypericum hubeiense” (J Nat Prod, 2023):
Calls of active or inactive are those of the source. The rule behind the calls is not given here.

What was measured:
[1] = Inhibition of NO production in LPS-induced mouse BV-2 cells incubated for 24 hrs by Griess reagent based microplate reader analysis; format: functional, cell-based; settings: BV-2, 24 h
[2] = system: BV-2; assay: Cytotoxicity against mouse BV-2 cells assessed as reduction in cell viability by MTT-based colorimetric method; format: toxicity
[3] = system: PC-12; assay: Neuroprotective activity against H2O2-induced cell injury in rat PC-12 cells assessed as increase in cell survival at 10 uM preincubated with compound for 24 hrs followed by H2O2 addition and measured after 24 hrs by MTT assay; format: functional, cell-based; settings: time 48.0 hrs
[4] = system: BV-2; assay: Anti-neuroinflammatory activity in mouse BV-2 cells assessed as reduction in LPS-induced COX-2 expression at 10 uM by Western blot analysis; format: functional, cell-based
[5] = system: BV-2; assay: Anti-neuroinflammatory activity in mouse BV-2 cells assessed as reduction in LPS-induced iNOS expression at 10 uM by Western blot analysis; format: functional, cell-based
[6] = system: BV-2; assay: Anti-neuroinflammatory activity in LPS-stimulated mouse BV-2 cells assessed as reduction in ratio of phosphorylated NF-kappaB to NFkappaB at 10 uM by Western blot analysis; format: functional, cell-based
[7] = system: BV-2; assay: Anti-neuroinflammatory activity in mouse BV-2 cells assessed as reduction in LPS-induced TLR-4 expression at 10 uM by Western blot analysis; format: functional, cell-based

| IC50 [1] [µM] | Structure (SMILES) | Activity [2] | Activity [3] | further results |
| --- | --- | --- | --- | --- |
| 4.92 | C=C1CCC(=O)[C@]2(C)CC[C@@H](C(C)C)[C@H](O)[C@@H]12 | Non-Toxic | – | – |
| – | C=C(C)[C@@H]1CCC2=C[C@H](OC)C[C@@H](C)[C@]2(C)C1 | – | Active | – |
| 6.81 | C=C1CCC[C@H]2[C@@H]1[C@H](C(C)=O)C[C@H]2C(C)C | Non-Toxic | Active | – |
| – | C=C(CO[C@@H]1O[C@H](CO)[C@@H](O)[C@H](O)[C@H]1O)[C@@H]1CC[C@@]2(O)CCC[C@@H](C)[C@]2(C)C1 | – | Active | – |
| 6.23 | C=C(C)[C@@H]1CC(=O)C2=CC(=O)C[C@@H](C)[C@]2(C)C1 | Non-Toxic | – | Activity [4]: Active; Activity [5]: Active; Activity [6]: Active; Activity [7]: Active |
| – | C=C(C)[C@H]1CC[C@]2(C)O[C@H]2CC[C@@]2(C)O[C@@H]2C1 | – | Active | – |
| 5.91 | C=C1CCC[C@H]2[C@@H]1[C@@H](C(C)=O)C[C@H]2C(C)C | Non-Toxic | Active | – |
| – | CC1=CC[C@H](O)[C@@]2(C)CC[C@H](C(C)(C)O[C@@H]3O[C@H](CO)[C@@H](O)[C@H](O)[C@H]3O)C[C@@H]12 | – | Active | – |
| – | C=C1CC[C@H]2O[C@]2(C)CC[C@@H]2[C@@H]1CC2(C)C | – | Active | – |
| – | C=C(C)[C@@H]1CC[C@@]2(C)[C@H](O)CC[C@@](C)(O)[C@@H]2C1 | – | Active | – |

| Structure (SMILES) | IC50 [1] [µM] | Activity [2] | Activity [3] | further results |
| --- | --- | --- | --- | --- |
| O=c1c(O)c(-c2ccc(O)c(O)c2)oc2cc(O)cc(O)c12 [QUERCETIN] | 6.5 | – | – | – |
